Measured values published in patent US20250230147A1, “LACTAMS AS CBL-B INHIBITORS” (Genentech, Inc., priority 2021, published 2025).
Structures can show the parent of a compound that is named as a salt.

Columns and labels:
[1] = target: Cbl-b (Homo sapiens (Human), UniProt Q13191); experiment: Cbl-b LCK Ub TR-FRET assay (Cbl-b Lck HTRF); format: biochemical
Outline: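 TR-FRET (340 nm excitation, 615/665 nm emission) read after adding HA-ubiquitin–UBE2D2 thioester, anti-HA-D2 and streptavidin-Eu. Beforehand, compounds incubated 60 min with biotinylated Cbl-b, then 90 min with His-LCK and ATP (1 mM in 2× mix); IC50 from 10 concentrations, DMSO high and no-LCK low controls.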

[2] = target: c-Cbl (Homo sapiens (Human), UniProt P22681); experiment: C-Cbl LCK Ub TR-FRET assay (c-cbl Lck HTRF); format: biochemical; settings: for (fold-selectivity): C-cbl Lck HTRF IC50 relative to Cbl-b Lck HTRF IC50
Sequence of c-Cbl (P22681 47-435): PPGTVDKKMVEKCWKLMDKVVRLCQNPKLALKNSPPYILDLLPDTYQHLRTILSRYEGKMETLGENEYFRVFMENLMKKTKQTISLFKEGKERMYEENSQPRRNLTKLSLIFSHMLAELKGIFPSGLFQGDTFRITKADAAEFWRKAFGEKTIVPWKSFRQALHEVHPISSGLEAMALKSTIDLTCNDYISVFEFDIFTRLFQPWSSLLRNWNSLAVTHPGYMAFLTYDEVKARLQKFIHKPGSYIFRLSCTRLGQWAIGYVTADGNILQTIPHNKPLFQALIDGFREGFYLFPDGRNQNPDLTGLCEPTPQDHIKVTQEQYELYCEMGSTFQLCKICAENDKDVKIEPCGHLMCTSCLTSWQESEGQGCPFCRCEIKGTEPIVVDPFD
Outline: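 After the ubiquitination reaction, detection mixture was added and plates incubated 20 min at room temperature before reading. IC50 values were calculated with wells lacking LCK as the low control and DMSO as the high control.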

Sequence of Cbl-b (Q13191 40-426): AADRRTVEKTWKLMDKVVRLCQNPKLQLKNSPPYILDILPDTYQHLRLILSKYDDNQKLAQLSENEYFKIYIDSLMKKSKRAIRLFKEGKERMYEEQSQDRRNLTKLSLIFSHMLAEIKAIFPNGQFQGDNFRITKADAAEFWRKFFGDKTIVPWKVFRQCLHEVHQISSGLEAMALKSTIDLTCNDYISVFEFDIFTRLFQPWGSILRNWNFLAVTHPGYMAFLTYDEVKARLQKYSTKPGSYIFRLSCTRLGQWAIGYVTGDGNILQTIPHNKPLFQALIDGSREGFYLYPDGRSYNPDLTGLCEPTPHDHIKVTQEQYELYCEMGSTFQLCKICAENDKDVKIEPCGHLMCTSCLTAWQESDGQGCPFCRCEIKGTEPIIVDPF

Question: With CCn1cnnc1C(F)C1(c2cccc(N3Cc4c(cc(CN5CCN(C)C[C@@H]5C(C)C)cc4C(F)(F)F)C3=O)c2)CC(F)(F)C1 (stereo partly drawn) [Compound 485, 2-(3-(1-((4-ethyl-4H-1,2,4-triazol-3-yl)fluoromethyl)-3,3-difluorocyclobutyl)phenyl)-6-(((S)-2-isopropyl-4-methylpiperazin-1-yl)methyl)-4-(trifluoromethyl) isoindolin-1-one] as the compound, how does the IC50 [1] read?
Answer: 31 nM

Question: What about the IC50 [2] of the same compound?
Answer: 29 nM

Question: And the “(fold-selectivity)” value [2]?
Answer: (0.92x)

Question: For CC(C)[C@H]1CN(S(C)(=O)=O)CCN1Cc1cc2c(c(C(F)(F)F)c1)CN(c1cccc(C3([C@H](F)c4nncn4C)COC3)c1)C2=O [Compound 196, 2-(3-(3-((S)-fluoro(4-methyl-4H-1,2,4-triazol-3-yl)methyl)oxetan-3-yl)phenyl)-6-(((S)-2-isopropyl-4-(methylsulfonyl)piperazin-1-yl)methyl)-4-(trifluoromethyl)isoindolin-1-one], which IC50 [1] is on record?
Answer: 240 nM

Question: What about the IC50 [2] of the same compound?
Answer: 660 nM

Question: And the “(fold-selectivity)” value [2]?
Answer: 2.8x

Question: What does the source list for Cn1cnnc1CC1(c2cccc(N3Cc4c(cc(C5CNC5)cc4C(F)(F)F)C3=O)c2)COC1 [Compound 12, 6-(azetidin-3-yl)-2-(3-(3-((4-methyl-4H-1,2,4-triazol-3-yl)methyl)oxetan-3-yl)phenyl)-4-(trifluoromethyl)isoindolin-1-one]?
Answer: IC50 [1]: 220 nM; IC50 [2]: 210 nM; (fold-selectivity) [2]: 0.94x

Question: What does the source list for CC(C)N(C)Cc1cc2c(c(C(F)(F)F)c1)CN(c1cccc(C3(Cc4nncn4C)CC(F)(F)C3)c1)C2=O [Compound 416, 2-(3-(3,3-difluoro-1-((4-methyl-4H-1,2,4-triazol-3-yl)methyl)cyclobutyl)phenyl)-6-((isopropyl(methyl)amino)methyl)-4-(trifluoromethyl)isoindolin-1-one]?
Answer: IC50 [1]: 92 nM; IC50 [2]: 110 nM; (fold-selectivity) [2]: (1.2x)

Question: What does the source list for Cc1cn[nH]c1C(F)C1(c2cccc(N3Cc4c(cc(CN5CCN(C)C[C@@H]5C(C)C)cc4C(F)(F)F)C3=O)c2)COC1 (stereo partly drawn) [Compound 237, 2-(3-(3-(fluoro(4-methyl-1H-pyrazol-5-yl)methyl)oxetan-3-yl)-phenyl)-6-(((S)-2-isopropyl-4-methylpiperazin-1-yl)methyl)-4-(trifluoromethyl)isoindolin-1-one]?
Answer: IC50 [1]: 100 nM; IC50 [2]: 180 nM; (fold-selectivity) [2]: (1.8x)

Question: With Cn1cnnc1CC1(c2cccc(N3Cc4c(cc(CNC(C)(C)C)cc4C(F)(F)F)C3=O)c2)CC(F)(F)C1 [Compound 283, 6-((tert-butylamino)methyl)-2-(3-(3,3-difluoro-1-((4-methyl-4H-1,2,4-triazol-3-yl)methyl)cyclobutyl)phenyl)-4-(trifluoromethyl)isoindolin-1-one] as the compound, how does the IC50 [1] read?
Answer: 53 nM

Question: What about the IC50 [2] of the same compound?
Answer: 57 nM

Question: What about the “(fold-selectivity)” value [2] of the same compound?
Answer: (1.1x)

Question: With CO[C@H]1CCN(Cc2cc3c(c(C(F)(F)F)c2)CN(c2cccc(C4([C@@H](F)c5nncn5C)COC4)c2)C3=O)C1 [Compound 131, 2-(3-(3-((R)-fluoro(4-methyl-4H-1,2,4-triazol-3-yl)methyl)oxetan-3-yl)phenyl)-6-(((S)-3-methoxypyrrolidin-1-yl)methyl)-4-(trifluoromethyl)isoindolin-1-one] as the compound, how does the IC50 [1] read?
Answer: 59 nM

Question: What about the IC50 [2] of the same compound?
Answer: 170 nM

Question: What about the “(fold-selectivity)” value [2] of the same compound?
Answer: 2.9x

Question: For Cn1cnnc1CC1(c2cccc(N3Cc4c(cc(CN)cc4C(F)(F)F)C3=O)c2)CC(F)(F)C1 [Compound 400, 6-(aminomethyl)-2-(3-(3,3-difluoro-1-((4-methyl-4H-1,2,4-triazol-3-yl)methyl)cyclobutyl)phenyl)-4-(trifluoromethyl)isoindolin-1-one], which IC50 [1] is on record?
Answer: 39 nM

Question: And the IC50 [2]?
Answer: 51 nM

Question: What about the “(fold-selectivity)” value [2] of the same compound?
Answer: (1.3x)

Question: How did the IC50 [1] turn out when CC(C)[C@H]1CN(Cc2cc3c(c(C(F)(F)F)c2)CN(c2cccc(C4([C@H](F)c5nncn5C)COC4)c2)C3=O)CCN1 [Compound 91] was run?
Answer: 140 nM

Question: And the IC50 [2]?
Answer: 170 nM

Question: What about the “(fold-selectivity)” value [2] of the same compound?
Answer: 1.2x

Question: What does the source list for Cn1cnnc1CC1(c2cccc(N3Cc4c(cc(CN5CCN[C@H](C6CC6)C5)cc4C(F)(F)F)C3=O)c2)CC(F)(F)C1 [Compound 430, (R)-6-((3-cyclopropylpiperazin-1-yl)methyl)-2-(3-(3,3-difluoro-1-((4-methyl-4H-1,2,4-triazol-3-yl)methyl)cyclobutyl)phenyl)-4-(trifluoromethyl)isoindolin-1-one]?
Answer: IC50 [1]: 43 nM; IC50 [2]: 35 nM; (fold-selectivity) [2]: (0.80x)

Question: CC1CCN(CCNc2cc(C3(Cc4nncn4C)CCC3)cc(N3Cc4c(cc(CNC5(C)CCC5)cc4C(F)(F)F)C3=O)n2)CC1 [Compound 309, 2-(4-(1-((4-methyl-4H-1,2,4-triazol-3-yl)methyl)cyclobutyl)-6-((2-(4-methylpiperidin-1-yl)ethyl)amino)pyridin-2-yl)-6-(((1-methylcyclobutyl)amino)methyl)-4-(trifluoromethyl)isoindolin-1-one formate] was tested. Which IC50 [1] did it give?
Answer: 540 nM

Question: And the IC50 [2]?
Answer: 520 nM

Question: Which results are given for Cn1cnnc1[C@@H](F)C1(c2cccc(N3Cc4c(cc(CN5CC6(CCO6)C5)cc4C(F)(F)F)C3=O)c2)COC1 [Compound 140, (S)-6-(1-oxa-6-azaspiro[3.3]heptan-6-ylmethyl)-2-(3-(3-(fluoro(4-methyl-4H-1,2,4-triazol-3-yl)methyl)oxetan-3-yl)phenyl)-4-(trifluoromethyl)isoindolin-1-one]?
Answer: IC50 [1]: 380 nM; IC50 [2]: 970 nM; (fold-selectivity) [2]: 2.8x

Question: For Cn1cnnc1CC1(c2cc(NCC3CCS(=O)(=O)CC3)nc(N3Cc4c(cc(CNC5(C)CCC5)cc4C(F)(F)F)C3=O)c2)CCC1 [Compound 315, 2-(6-(((1,1-dioxidotetrahydro-2H-thiopyran-4-yl)methyl)amino)-4-(1-((4-methyl-4H-1,2,4-triazol-3-yl)methyl)cyclobutyl)pyridin-2-yl)-6-(((1-methylcyclobutyl)amino)methyl)-4-(trifluoromethyl)isoindolin-1-one], which IC50 [1] is on record?
Answer: 570 nM

Question: What about the IC50 [2] of the same compound?
Answer: 480 nM

Question: And the “(fold-selectivity)” value [2]?
Answer: (0.84x)

Question: What does the source list for CCOc1cc(N2Cc3c(cc(CNC4(C)CCC4)cc3C(F)(F)F)C2=O)cc(C2(Cc3nncn3C)COC2)c1 [Compound 473, 2-(3-ethoxy-5-(3-((4-methyl-4H-1,2,4-triazol-3-yl)methyl)oxetan-3-yl)phenyl)-6-(((1-methylcyclobutyl)amino)methyl)-4-(trifluoromethyl)isoindolin-1-one]?
Answer: IC50 [1]: 15 nM; IC50 [2]: 17 nM; (fold-selectivity) [2]: (1.2x)

Question: With C=CC1(O)CN(Cc2cc3c(c(C(F)(F)F)c2)CN(c2cccc(C4([C@H](F)c5nncn5C)COC4)c2)C3=O)C1 [Compound 170, (S)-2-(3-(3-(fluoro(4-methyl-4H-1,2,4-triazol-3-yl)methyl)oxetan-3-yl)phenyl)-6-((3-hydroxy-3-vinylazetidin-1-yl)methyl)-4-(trifluoromethyl)isoindolin-1-one] as the compound, how does the IC50 [1] read?
Answer: 140 nM

Question: What about the IC50 [2] of the same compound?
Answer: 360 nM

Question: What about the “(fold-selectivity)” value [2] of the same compound?
Answer: 2.5x

Question: For CCCNCc1cc2c(c(C(F)(F)F)c1)CN(c1cccc(C3([C@@H](F)c4nncn4C)COC3)c1)C2=O [Compound 228, (R)-2-(3-(3-(fluoro(4-methyl-4H-1,2,4-triazol-3-yl)methyl)oxetan-3-yl)phenyl)-6-((propylamino)methyl)-4-(trifluoromethyl)isoindolin-1-one formate], which IC50 [1] is on record?
Answer: 12 nM

Question: What about the IC50 [2] of the same compound?
Answer: 96 nM

Question: For Cn1cnnc1[C@@H](F)C1(c2cccc(N3Cc4c(cc(CN5CC6(C5)CS(=O)(=O)C6)cc4C(F)(F)F)C3=O)c2)COC1 [Compound 182, (S)-6-((2,2-dioxido-2-thia-6-azaspiro[3.3]heptan-6-yl)methyl)-2-(3-(3-(fluoro(4-methyl-4H-1,2,4-triazol-3-yl)methyl)oxetan-3-yl)phenyl)-4-(trifluoromethyl)isoindolin-1-one], which IC50 [1] is on record?
Answer: 170 nM

Question: What about the IC50 [2] of the same compound?
Answer: 430 nM

Question: What about the “(fold-selectivity)” value [2] of the same compound?
Answer: 2.6x

Question: How did the IC50 [1] turn out when Cn1cnnc1C(F)(F)C1(c2cccc(N3Cc4c(cc(CN5CC(C)(O)C5)cc4C(F)(F)F)C3=O)c2)CC(F)(F)C1 [Compound 383, 2-(3-(1-(difluoro(4-methyl-4H-1,2,4-triazol-3-yl)methyl)-3,3-difluorocyclobutyl)phenyl)-6-((3-hydroxy-3-methylazetidin-1-yl)methyl)-4-(trifluoromethyl)isoindolin-1-one] was run?
Answer: 490 nM

Question: What about the IC50 [2] of the same compound?
Answer: 380 nM

Question: And the “(fold-selectivity)” value [2]?
Answer: (0.77x)

Question: How did the IC50 [1] turn out when Cn1cnnc1[C@H](F)C1(c2cccc(N3Cc4c(cc(CN5CCC(C)(O)CC5)cc4C(F)(F)F)C3=O)c2)COC1 [Compound 141, (R)-2-(3-(3-(fluoro(4-methyl-4H-1,2,4-triazol-3-yl)methyl)oxetan-3-yl)phenyl)-6-((4-hydroxy-4-methylpiperidin-1-yl)methyl)-4-(trifluoromethyl)isoindolin-1-one] was run?
Answer: 91 nM

Question: What about the IC50 [2] of the same compound?
Answer: 120 nM

Question: And the “(fold-selectivity)” value [2]?
Answer: 1.3x

Question: For Cn1cnnc1[C@@H](F)C1(c2cccc(N3Cc4c(cc(CN5CC(C)(O)C5)cc4C(F)(F)F)C3=O)c2)COC1 [Compound 162, (S)-2-(3-(3-(fluoro(4-methyl-4H-1,2,4-triazol-3-yl)methyl)oxetan-3-yl)phenyl)-6-((3-hydroxy-3-methylazetidin-1-yl)methyl)-4-(trifluoromethyl)isoindolin-1-one], which IC50 [1] is on record?
Answer: 190 nM

Question: What about the IC50 [2] of the same compound?
Answer: 330 nM

Question: What about the “(fold-selectivity)” value [2] of the same compound?
Answer: 1.7x

Question: Which IC50 [1] does the source give for Cn1cnnc1C[C@]1(c2cccc(N3Cc4c(cccc4C(F)(F)F)C3=O)c2)C[C@H](F)C1 [Compound 100, 2-(3-((1r,3s)-3-fluoro-1-((4-methyl-4H-1,2,4-triazol-3-yl)methyl)cyclobutyl)phenyl)-4-(trifluoromethyl)isoindolin-1-one] here?
Answer: 190 nM

Question: What about the IC50 [2] of the same compound?
Answer: 380 nM

Question: What about the “(fold-selectivity)” value [2] of the same compound?
Answer: 1.9x
